Data published in patent US7759345B2, “Antitumoral derivatives of ET-743” (priority 2001, dated 2010).
pIC50: −log10 of the molar value. Where two headings read alike, the source gives them in different places.

Columns and labels:
SK-BR-3 = test: Inhibition of cells growth by colorimetric assay (SRB), SK-BR-3; format: cell-based
In short: (§1)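 Using sulforhodamine B, cell growth and viability are quantified after a 48 h drug exposure of cells maintained in RPMI 1640/10% FBS at 37 °C, 5% CO2. Concentrations span 10 to 10^−8 μg/ml; optical density is read at 490 nm.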

Skeletal [1] = test: In vitro toxicity, Skeletal
Description: (§3) Toxicity was asssessed by the methods reported in Toxicology in Vitro, 15 (2001) 571-577, J. Luber Narod et al.: “Evaluation of the use of in vitro methodolodies as tools for screening new compounds for potential in vivo toxicity”.

SK-OV-3 = test: Inhibition of cells growth by colorimetric assay (SRB), SK-OV-3; format: cell-based
In short: as §1

PANC-1 = test: Inhibition of cells growth by colorimetric assay (SRB), PANC-1; format: cell-based
In short: as §1

Liver [2] = test: In vitro toxicity, Liver
Description: as §3

HT-29 [3] = test: Inhibition of cells growth by colorimetric assay (SRB), HT-29; format: cell-based
In short: as §1

SK-MEL-28 = test: Inhibition of cells growth by colorimetric assay (SRB), SK-MEL-28; format: cell-based
In short: as §1

Heart [4] = test: In vitro toxicity, Heart
Description: as §3

LoVo-Dox = test: Inhibition of cells growth by colorimetric assay (SRB), LoVo-Dox; format: cell-based
In short: as §1

Kidney [5] = test: In vitro toxicity, Kidney
Description: as §3

K-562 = test: Inhibition of cells growth by colorimetric assay (SRB), K-562; format: cell-based
In short: as §1

LoVo = test: Inhibition of cells growth by colorimetric assay (SRB), LoVo; format: cell-based
In short: as §1

Myelo [6] = test: In vitro toxicity, Myelo
Description: as §3

IGROV-ET = test: Inhibition of cells growth by colorimetric assay (SRB), IGROV-ET; format: cell-based
In short: as §1

IGROV-1 = test: Inhibition of cells growth by colorimetric assay (SRB), IGROV-1; format: cell-based
In short: as §1

DU-145 [7] = test: Inhibition of cells growth by colorimetric assay (SRB), DU-145; format: cell-based
In short: as §1

A-549 [8] = test: Inhibition of cells growth by colorimetric assay (SRB), A-549; format: cell-based
In short: as §1

LNCaP = test: Inhibition of cells growth by colorimetric assay (SRB), LNCaP; format: cell-based
In short: as §1

HMEC1 = test: Inhibition of cells growth by colorimetric assay (SRB), HMEC1; format: cell-based
In short: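 5×10^3 cells/well; 18 h attach; compound 10–10^−8 μg/ml in DMSO/EtOH/PBS (0.5:0.5:99), 48 h, 37 °C, 5% CO2; cold 50% TCA fix 60 min 4 °C; 0.4% SRB 10 min RT; Tris solubilization; OD 490 nm; triplicates.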

HT-29 [9] = test: Inhibition of cell growth by counting cells, HT-29; format: cell-based, human; details: Homo sapiens, HT-29, 72 h; three days of incubation; read-out: IC50 (molar) HT-29
In short: (§2)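 Growth inhibition by direct cell counting: exponentially growing cells treated 3 days with compound at 37° C; IC50 derived from dose-response of net cells per well.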

Heart [10] = test system: Heart
Description: as §3

P-388 = test: Inhibition of cell growth by counting cells, P-388; format: cell-based, mouse; details: Mus musculus, P388, 72 h; three days of incubation; read-out: IC50 (molar) P-388
In short: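 IC50 is the sample concentration halving growth, taken from dose-response curves of cell counts (Coulter counter, duplicate wells) relative to drug-free cultures. P-388 (DBA/2 mouse lymphoid neoplasm) cells plated at 1×10^4 per well in EMEM with 5% FCS plus test sample.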

A-549 [11] = test: Inhibition of cell growth by counting cells, A-549; format: cell-based, human; details: Homo sapiens, A549, 72 h; three days of incubation; read-out: IC50 (molar) A-549
In short: as §2

Liver [12] = test system: Liver
Description: as §3

DU-145 [13] = test: Inhibition of cell growth by counting cells, DU-145; format: cell-based, human; details: Homo sapiens, DU-145, 72 h; three days of incubation; read-out: IC50 (molar) DU-145
In short: as §2

Skeletal [14] = test system: Skeletal
Description: as §3

tumor cell culture = test: Bioassays for antitumor screening, cell line not given; format: cell-based; details: cell line not stated
Description: Bioassays for Antitumor Screening
The finality of these assays is to interrupt the growth of a “in vitro” tumor cell culture by means a continued exhibition of the cells to the sample to be testing.

Kidney [15] = test system: Kidney
Description: as §3

Myelo [16] = test system: Myelo
Description: as §3

MEL-28 = test: Inhibition of cell growth by counting cells, MEL-28; format: cell-based, human; details: Homo sapiens, SK-MEL-28, 72 h; three days of incubation; read-out: IC50 (molar) MEL-28
In short: as §2

SMILES: COc1cc2c(cc1O)CCN[C@]21CS[C@@H]2c3c(OC(=O)C(F)(F)C(F)(F)C(F)(F)F)c(C)c4c(c3[C@H](COC1=O)N1C2[C@H]2c3c(cc(C)c(OC)c3O)C[C@@H]([C@@H]1O)N2C)OCO4 (stereo partly shown) [Compound 167]
- GI50 (SK-BR-3; Homo sapiens, SK-BR-3, 48 h, read-out: SK-BR3 GI50): 17.6 nM
- CC50 (SK-BR-3; Homo sapiens, SK-BR-3, 48 h, read-out: SK-BR3 LC50, SRB assay, 48 hours exposure): 238 nM
- SK-BR3 TGI (SK-BR-3; SRB assay, 48 hours exposure): 5.19E-08
- Toxicity Data Skeletal (Skeletal [1]): 1.09E-07
- GI50 (SK-OV-3; Homo sapiens, SK-OV-3, 48 h, read-out: SK-OV3 GI50): 40.2 nM
- LC50 (SK-OV-3; Homo sapiens, SK-OV-3, 48 h, read-out: SK-OV3 LC50, SRB assay, 48 hours exposure): 10.9 µM
- SK-OV3 TGI (SK-OV-3; SRB assay, 48 hours exposure): 1.48E-07
- GI50 (PANC-1; Homo sapiens, PANC-1, 48 h, read-out: PANC-1 GI50): 46.5 nM
- LC50 (concentration for 50% net cell kill) (PANC-1; Homo sapiens, PANC-1, 48 h, read-out: PANC-1 LC50, SRB assay, 48 hours exposure): 10.9 µM
- PANC-1 TGI (PANC-1; SRB assay, 48 hours exposure): 1.09E-07
- Toxicity Data Liver (Liver [2]): 4.83E-07
- GI50 (HT-29 [3]; Homo sapiens, HT-29, 48 h, read-out: HT-29 GI50): 28.9 nM
- LC50 (concentration for 50% cell killing) (HT-29 [3]; Homo sapiens, HT-29, 48 h, read-out: HT-29 LC50, SRB assay, 48 hours exposure): 10.9 µM
- HT-29 TGI (HT-29 [3]; SRB assay, 48 hours exposure): 1.51E-07
- GI50 (SK-MEL-28; Homo sapiens, SK-MEL-28, 48 h, read-out: MEL-28 GI50): 23.8 nM
- CC50 (SK-MEL-28; Homo sapiens, SK-MEL-28, 48 h, read-out: MEL-28 LC50, SRB assay, 48 hours exposure): 107 nM
- MEL-28 TGI (SK-MEL-28; SRB assay, 48 hours exposure): 5.06E-08
- Toxicity Data Heart (Heart [4]): 4.28E-07
- GI50 (LoVo-Dox; Homo sapiens, 48 h, read-out: LOVO-DOX GI50): 416 nM
- CC50 (LoVo-Dox; Homo sapiens, 48 h, read-out: LOVO-DOX LC50, SRB assay, 48 hours exposure): 10.9 µM
- LOVO-DOX TGI (LoVo-Dox; SRB assay, 48 hours exposure): 1.58E-06
- Toxicity Data Kidney (Kidney [5]): 2.77E-07
- GI50 (K-562; Homo sapiens, K562, 48 h, read-out: K-562 GI50): 7 nM
- LC50 (50% cell killing) (K-562; Homo sapiens, K562, 48 h, read-out: K-562 LC50, SRB assay, 48 hours exposure): 71.7 nM
- K-562 TGI (K-562; SRB assay, 48 hours exposure): 9.64E-09
- GI50 (LoVo; Homo sapiens, LoVo, 48 h, read-out: LOVO GI50): 33.6 nM
- LC50 (concentration for 50% cell killing) (LoVo; Homo sapiens, LoVo, 48 h, read-out: LOVO LC50, SRB assay, 48 hours exposure): 190 nM
- LOVO TGI (LoVo; SRB assay, 48 hours exposure): 6.74E-08
- Toxicity Data Myelo (Myelo [6]): 1.01E-06
- GI50 (IGROV-ET; Homo sapiens, 48 h, read-out: IGROV-ET GI50): 77.6 nM
- CC50 (IGROV-ET; Homo sapiens, 48 h, read-out: IGROV-ET LC50, SRB assay, 48 hours exposure): 5.24 µM
- IGROV-ET TGI (IGROV-ET; SRB assay, 48 hours exposure): 9.05E-07
- GI50 (IGROV-1; Homo sapiens, IGROV-1, 48 h, read-out: IGROV GI50): 6.46 nM
- CC50 (IGROV-1; Homo sapiens, IGROV-1, 48 h, read-out: IGROV LC50, SRB assay, 48 hours exposure): 89.2 nM
- IGROV TGI (IGROV-1; SRB assay, 48 hours exposure): 2.49E-08
- GI50 (DU-145 [7]; Homo sapiens, DU-145, 48 h, read-out: DU-145 GI50): 48.8 nM
- CC50 (DU-145 [7]; Homo sapiens, DU-145, 48 h, read-out: DU-145 LC50, SRB assay, 48 hours exposure): 10.9 µM
- DU-145 TGI (DU-145 [7]; SRB assay, 48 hours exposure): 1.01E-07
- GI50 (A-549 [8]; Homo sapiens, A549, 48 h, read-out: A-549 GI50): 28.3 nM
- LC50 (concentration for 50% cell killing) (A-549 [8]; Homo sapiens, A549, 48 h, read-out: A-549 LC50, SRB assay, 48 hours exposure): 482 nM
- A-549 TGI (A-549 [8]; SRB assay, 48 hours exposure): 6.54E-08
- GI50 (LNCaP; Homo sapiens, LNCaP, 48 h, read-out: LNCAP GI50, SRB assay, 48 hours exposure): 19.7 nM
- CC50 (LNCaP; Homo sapiens, LNCaP, 48 h, read-out: LNCAP LC50, SRB assay, 48 hours exposure): 73.6 nM
- LNCAP TGI (LNCaP; SRB assay, 48 hours exposure): 3.80E-08
- GI50 (HMEC1; Homo sapiens, HMEC-1, 48 h, read-out: HMEC-1 GI50): 51.5 nM
- LC50 (HMEC1; Homo sapiens, HMEC-1, 48 h, read-out: HMEC-1 LC50, SRB assay, 48 hours exposure): 10.9 µM
- HMEC-1 TGI (HMEC1; SRB assay, 48 hours exposure): 3.49E-07

SMILES: CCCCCCCCCCCCCCCC(=O)Oc1c(C)c2c(c3c1[C@H]1SC[C@]4(NCCc5cc(O)c(OC)cc54)C(=O)OC[C@@H]3N3C1[C@H]1c4c(cc(C)c(OC)c4O)C[C@@H]([C@@H]3O)N1C)OCO2 (stereo partly shown) [Compound 170]
- pIC50 (HT-29 [9]): 7.28
- Toxicity Data Heart (Heart [10]): non toxic
- pIC50 (P-388): 7.28
- pIC50 (A-549 [11]): 7.28
- Toxicity Data Liver (Liver [12]): 3.58E-07
- pIC50 (DU-145 [13]): 7.28
- Toxicity Data Skeletal (Skeletal [14]): 3.29E-07
- antitumor activity (in words) (tumor cell culture): active
- Toxicity Data Kidney (Kidney [15]): 3.01E-07
- Toxicity Data Myelo (Myelo [16]): non toxic
- pIC50 (MEL-28): 7.28
